The values below come from patent US8497361B2, “Topoisomerase binding probe and method of use” (priority 2010, dated 2013).

The target of one experiment is F. tularensis GyrB (Francisella tularensis subsp. tularensis, UniProt Q5NHE7). The experiment in a line: biochemical. The class given is binding.
Experiment [1] concerns the target T1, E. coli gyrase A2B2 heterotetramer (Escherichia coli, UniProt P0AES6).
T1 construct: purchased Topogen
The experiment in a line: Gyrase activity assay (supercoiling of relaxed plasmid DNA). The class given is biochemical. The note with it: 50 μM compound, 0.5 μg relaxed DNA, 1 hour at 37° C., agarose gel.

Sequence of F. tularensis GyrB (Q5NHE7 1-805): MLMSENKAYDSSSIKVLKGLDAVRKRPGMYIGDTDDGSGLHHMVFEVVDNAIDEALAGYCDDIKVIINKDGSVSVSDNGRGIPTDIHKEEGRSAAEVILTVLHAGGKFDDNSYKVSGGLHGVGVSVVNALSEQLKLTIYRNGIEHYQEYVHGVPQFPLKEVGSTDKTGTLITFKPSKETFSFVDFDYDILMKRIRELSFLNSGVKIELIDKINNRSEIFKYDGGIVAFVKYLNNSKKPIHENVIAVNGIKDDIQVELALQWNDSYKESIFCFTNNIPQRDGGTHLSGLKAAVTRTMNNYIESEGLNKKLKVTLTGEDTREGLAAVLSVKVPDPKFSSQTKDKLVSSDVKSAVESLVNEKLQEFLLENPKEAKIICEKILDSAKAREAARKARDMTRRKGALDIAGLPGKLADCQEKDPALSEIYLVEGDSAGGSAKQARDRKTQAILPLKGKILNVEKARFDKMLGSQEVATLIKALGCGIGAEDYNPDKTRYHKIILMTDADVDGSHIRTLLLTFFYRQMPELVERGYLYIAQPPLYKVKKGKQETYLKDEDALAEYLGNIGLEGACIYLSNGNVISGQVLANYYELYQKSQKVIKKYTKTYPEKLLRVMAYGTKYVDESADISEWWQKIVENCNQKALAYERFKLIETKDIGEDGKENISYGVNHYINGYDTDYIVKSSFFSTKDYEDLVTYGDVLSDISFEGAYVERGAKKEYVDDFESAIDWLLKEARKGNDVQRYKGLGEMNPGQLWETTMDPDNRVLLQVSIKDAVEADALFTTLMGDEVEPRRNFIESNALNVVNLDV

For orientation: Ki means the equilibrium dissociation constant of an inhibitor or competing ligand from its target. A lower Ki goes with higher affinity. As to `CC(=O)[C@]1(O)Cc2c(O)c3c(c(O)c2[C@@H](O[C@H]2C[C@H](N)[C@H](O)[C@H](C)O2)C1)C(=O)c1ccccc1C3=O` [idarubicin], the affinity at F. tularensis GyrB, expressed as Ki, was 0.48 µM. Also, the “inhibition of supercoiling of relaxed DNA” value in experiment [1] was “less clear”.
In the same order, the values of `COc1cccc2c1C(=O)c1c(O)c3c(c(O)c1C2=O)C[C@@](O)(C(C)=O)C[C@@H]3O[C@H]1C[C@H](N)[C@H](O)[C@H](C)O1` [daunorubicin] are 0.444 µM and “less clear”.
In the same order, the values of `COc1cccc2c1C(=O)c1c(O)c3c(c(O)c1C2=O)C[C@@](O)(C(=O)CO)C[C@@H]3O[C@H]1C[C@H](N)[C@@H](O)[C@H](C)O1` [epirubicin] are 0.386 µM and “inhibit supercoiling to the level of the no gyrase control”.
In the case of `COc1cccc2c1C(=O)c1c(O)c3c(c(O)c1C2=O)C[C@@](O)(C(=O)CO)C[C@@H]3O[C@H]1C[C@H](N)[C@H](O)[C@H](C)O1` [doxorubicin], the inhibitory constant (Ki) on F. tularensis GyrB came out at 0.094 µM. Moreover, the “inhibition of supercoiling of relaxed DNA” value in experiment [1] was “inhibit supercoiling to the level of the no gyrase control”.
